Results on 1 compound are retold here after publication PMC9096165 (Frontiers in Pharmacology, 2022).

The target in one series is Nav1.7 (Homo sapiens, UniProt Q15858). The experiment in a line: Ion channel assay, agonist and antagonist mode. In kind it is biochemical. The conditions noted are these: up to 100 μM (maximum tested concentration). On the procedure: (§1) In addition, DF2755A was tested on TRPM8, TRPV1, TRPV4, TRPA1, and Nav1.7 ion channels in agonist and antagonist mode at eight concentrations in quadruplicate (100 μM was the highest tested concentration).

In the next series the target is TRPA1 (Homo sapiens, UniProt O75762). The experiment in a line: Ion channel assay, agonist and antagonist mode. The class given is biochemical. To be noted: up to 100 μM (maximum tested concentration). On the procedure:
as §1

The target of another series is TRPM8 (Homo sapiens, UniProt Q7Z2W7). The experiment in a line: Ion channel assay, agonist and antagonist mode. In kind it is biochemical. To be noted: up to 100 μM (maximum tested concentration). The protocol: as §1
In series [1] the target is TRPV1 (Homo sapiens, UniProt Q8NER1). The experiment in a line: Ion channel assay, agonist and antagonist mode. The conditions noted are these: up to 100 μM (maximum tested concentration). In kind it is biochemical. The protocol: as §1
Another series deals with TRPV4 (Homo sapiens, UniProt Q9HBA0). The experiment in a line: Ion channel assay, agonist and antagonist mode. The class given is biochemical. To be noted: up to 100 μM (maximum tested concentration). On the procedure:
as §1

Series [2] is described as follows: Routes and rates of excretion after single oral [14C]DF2755A. The conditions noted are these: single oral 20 mg/kg, female SD rats. In kind it is in vivo.
Description: Prior to administration and for acclimatization, animals (n = 6) were transferred to individual metabolic cages and were left therein for the duration of the study except for a short period during dosing. The metabolic cages were specifically designed for the separate collection of urine and feces. The preparation of dose formulation was performed on the day of experiment. The test item was dissolved in the appropriate volume of saline solution (NaCl, 0.9% w v^−1) to achieve the dose volume of 5 ml kg^−1. The resulting solution was then administered via a gavage fed down the esophagus to enable the formulation to be dispensed directly into the stomach.
Radioactivity was extracted from the selected feces and urine homogenate pools with appropriate solvents based on methodology developed at Quotient (Rushden) Ltd. and analyzed by quantitative radioactivity analysis (QRA).
For series [3], the system named is CYP-induced non-ulcerative IC rat model. The series is described as follows: Mechanical nociceptive abdominal and hind paw test (Von Frey) in chronic CYP-induced non-ulcerative IC/BPS. In kind it is in vivo, female Sprague–Dawley rats. The protocol:
CYP was administered to the animals by the intraperitoneal (i.p.) route (5 ml kg^−1) at the dosage of 75 mg kg^−1 for three times every third day to elicit chronic bladder irritation, as previously described ([Vizzard et al., 1996]).
DF2755A was administered by oral gavage (2 ml kg^−1) at different doses and times before, during, or after CYP treatment, as specified hereunder. DF2755A dosages were chosen based on previous studies that described pharmacokinetics, pharmacodynamics, and pharmacological characterization of the compound ([Lopes et al., 2016]).
Acute treatment: DF2755A was administered 24 h after the last CYP administration at 3, 7, 10, and 30 mg kg^−1.
Chronic preventive treatment: DF2755A was administered 12 h before the first CYP administration (20 mg kg^−1) and then twice daily (7 mg kg^−1) for 7 days during IC development.
Chronic therapeutic treatment: DF2755A was administered twice daily for 7 days at 7 mg kg^−1, starting from 24 h after the last CYP injection.
On the day of the test, each rat was placed individually in a clear plastic testing box with a grid floor and allowed to acclimatize for at least 10 min. Peripheral sensitivity in response to mechanical stimuli was determined using Von Frey monofilaments (1-2-4-8-15-26-60–100 g; Ugo Basile, Comerio, Varese, Italy) applied in the lower abdominal area (close to the urinary bladder) and on both hind paw plantar surfaces (to evaluate referred pain).
Each Von Frey monofilament was applied five times at the level of abdomen and three times at the level of each paw, in an ascending order of strength at interval of 5 s. A stimulus-induced response was considered positive when the paw was sharply withdrawn, paw licking occurred, or the animal flinched upon removal of the filament.
Behavioral testing was performed at different times: • 1) before CYP administration, in order to acquire basal values; • 2) after CYP administration and before DF2755A treatment, in order to verify the pathology induction and acquire pre-treatment values; • 3) at different times after DF2755A treatment, in order to acquire post-treatment values, specifically at 2 and 18 h after the last treatment.

Series [4] deals with TRPV1. The experiment in a line: TRPV1 mRNA expression in F11 cells (RT PCR). The class given is cell-based. The conditions noted are these: DF2755A 1 µM + CYP 100 nM. The text has this:
(§2) For these experiments, cells at 18th passage were used.
(§3) Triplicate samples were run for each gene.

The test system of series [5] is TRPV1. The series is described as follows: TRPV1 protein level in F11 cells (Western blotting). The class given is cell-based. The conditions noted are these: DF2755A 1 µM + CYP 100 nM.
Excerpt: as §2, §3
Control and treated F11 cells were collected and lysed in an ice-cold RIPA buffer containing protease and phosphatase inhibitor cocktail (Sigma-Aldrich, United States). The extracted proteins were quantified using BCA assay (Thermo, United States). NuPAGE lithium dodecyl sulfate sample buffer (Cat#NP007, Thermo, United States) and NuPAGE sample reducing agent (Cat#NP0004, Thermo, United States) were added to the samples and then put in the Thermoblock (Eppendorf, United Kingdom) at 75°C for 10 min. Protein lysates (30 μg) were separated on NuPAGE bis–tris glycine gradient precast gel (Cat#NP0321PK2, Invitrogen, United States) and electroblotted on a PVDF membrane (Cat#IPVH00010, Millipore, United States) using a semi-dry system (Thermo, United States). Non-specific binding sites were blocked by blocking solution (Cat#000105, Invitrogen, United States) for 15 min at RT. […] The relative densities of the immunoreactive bands were determined and normalized with respect to actin, using Fiji software. […]

The next series concerns CXCR2. Also on record: method as in Lopes et al., 2016. The conditions noted are these: ref Lopes et al., 2016; cited from earlier work.
The mark [6] stands for this setting: acute oral treatment 24 h after last CYP, abdomen and hind paw, 2 h after administration.
The mark [7] stands for this setting: preventive: 20 mg kg^−1 12 h before first CYP, then 7 mg kg^−1 twice daily for 7 days p.o., 24 h after last CYP.
Setting [8] is: therapeutic 7 mg kg^−1 twice daily for 7 days, 3 and 7 days after treatment discontinuation.
[9] abbreviates: therapeutic 7 mg kg^−1 twice daily for 7 days, 18 h after the last administration.

Structures are written as SMILES.

Sequence of TRPA1 (O75762 whole entry, species assumed): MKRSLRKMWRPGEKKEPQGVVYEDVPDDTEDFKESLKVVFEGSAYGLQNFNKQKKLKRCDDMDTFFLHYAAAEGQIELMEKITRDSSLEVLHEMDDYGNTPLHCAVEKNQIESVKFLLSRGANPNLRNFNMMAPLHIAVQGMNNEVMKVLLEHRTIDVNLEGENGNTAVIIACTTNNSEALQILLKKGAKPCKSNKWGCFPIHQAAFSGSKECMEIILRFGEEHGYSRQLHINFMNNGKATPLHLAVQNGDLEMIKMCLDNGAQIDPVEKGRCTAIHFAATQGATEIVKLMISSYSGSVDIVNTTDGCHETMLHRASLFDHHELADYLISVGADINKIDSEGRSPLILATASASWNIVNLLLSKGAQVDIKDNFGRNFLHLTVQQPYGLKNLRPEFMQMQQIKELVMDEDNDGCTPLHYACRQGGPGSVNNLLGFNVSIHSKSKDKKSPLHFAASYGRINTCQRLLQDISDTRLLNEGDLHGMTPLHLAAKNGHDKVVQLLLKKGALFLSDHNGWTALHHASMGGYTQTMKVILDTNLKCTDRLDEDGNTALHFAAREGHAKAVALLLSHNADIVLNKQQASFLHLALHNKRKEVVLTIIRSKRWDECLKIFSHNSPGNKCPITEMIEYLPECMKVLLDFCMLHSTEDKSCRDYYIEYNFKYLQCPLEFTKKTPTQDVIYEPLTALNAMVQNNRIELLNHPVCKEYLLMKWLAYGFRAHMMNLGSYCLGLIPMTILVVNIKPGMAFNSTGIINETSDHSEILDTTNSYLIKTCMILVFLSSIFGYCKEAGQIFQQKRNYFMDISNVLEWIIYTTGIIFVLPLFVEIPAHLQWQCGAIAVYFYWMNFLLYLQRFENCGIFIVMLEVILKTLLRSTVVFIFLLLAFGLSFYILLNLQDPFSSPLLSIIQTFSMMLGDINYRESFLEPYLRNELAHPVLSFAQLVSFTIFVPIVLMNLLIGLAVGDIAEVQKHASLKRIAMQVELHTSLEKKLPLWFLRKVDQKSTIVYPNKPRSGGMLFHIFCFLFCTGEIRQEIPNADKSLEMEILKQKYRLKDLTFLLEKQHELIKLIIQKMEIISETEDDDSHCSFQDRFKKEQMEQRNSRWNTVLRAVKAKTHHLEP
Sequence of TRPV4 (Q9HBA0 whole entry, species assumed): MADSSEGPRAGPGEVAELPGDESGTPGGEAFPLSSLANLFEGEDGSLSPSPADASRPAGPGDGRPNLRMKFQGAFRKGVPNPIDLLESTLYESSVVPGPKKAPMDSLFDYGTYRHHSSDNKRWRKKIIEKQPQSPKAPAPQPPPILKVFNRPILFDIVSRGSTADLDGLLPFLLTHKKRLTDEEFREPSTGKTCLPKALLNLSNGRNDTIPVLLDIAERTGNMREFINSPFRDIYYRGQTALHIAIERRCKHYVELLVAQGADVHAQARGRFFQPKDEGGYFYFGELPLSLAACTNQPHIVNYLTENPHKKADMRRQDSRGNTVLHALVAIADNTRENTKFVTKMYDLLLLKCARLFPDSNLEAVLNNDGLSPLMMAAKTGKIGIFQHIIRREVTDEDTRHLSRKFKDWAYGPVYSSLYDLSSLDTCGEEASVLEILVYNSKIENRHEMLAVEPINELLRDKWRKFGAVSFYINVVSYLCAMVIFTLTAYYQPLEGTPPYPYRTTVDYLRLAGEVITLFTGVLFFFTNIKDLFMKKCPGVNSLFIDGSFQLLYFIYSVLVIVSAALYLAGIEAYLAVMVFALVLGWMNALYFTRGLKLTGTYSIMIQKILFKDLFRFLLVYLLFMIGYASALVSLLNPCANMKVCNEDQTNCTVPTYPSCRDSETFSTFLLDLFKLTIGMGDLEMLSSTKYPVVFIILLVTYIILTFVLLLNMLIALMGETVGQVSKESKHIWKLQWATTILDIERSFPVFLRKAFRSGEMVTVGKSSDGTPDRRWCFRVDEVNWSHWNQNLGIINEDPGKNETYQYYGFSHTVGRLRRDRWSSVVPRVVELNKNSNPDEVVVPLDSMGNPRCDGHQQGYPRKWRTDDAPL
Sequence of Nav1.7 (Q15858 whole entry): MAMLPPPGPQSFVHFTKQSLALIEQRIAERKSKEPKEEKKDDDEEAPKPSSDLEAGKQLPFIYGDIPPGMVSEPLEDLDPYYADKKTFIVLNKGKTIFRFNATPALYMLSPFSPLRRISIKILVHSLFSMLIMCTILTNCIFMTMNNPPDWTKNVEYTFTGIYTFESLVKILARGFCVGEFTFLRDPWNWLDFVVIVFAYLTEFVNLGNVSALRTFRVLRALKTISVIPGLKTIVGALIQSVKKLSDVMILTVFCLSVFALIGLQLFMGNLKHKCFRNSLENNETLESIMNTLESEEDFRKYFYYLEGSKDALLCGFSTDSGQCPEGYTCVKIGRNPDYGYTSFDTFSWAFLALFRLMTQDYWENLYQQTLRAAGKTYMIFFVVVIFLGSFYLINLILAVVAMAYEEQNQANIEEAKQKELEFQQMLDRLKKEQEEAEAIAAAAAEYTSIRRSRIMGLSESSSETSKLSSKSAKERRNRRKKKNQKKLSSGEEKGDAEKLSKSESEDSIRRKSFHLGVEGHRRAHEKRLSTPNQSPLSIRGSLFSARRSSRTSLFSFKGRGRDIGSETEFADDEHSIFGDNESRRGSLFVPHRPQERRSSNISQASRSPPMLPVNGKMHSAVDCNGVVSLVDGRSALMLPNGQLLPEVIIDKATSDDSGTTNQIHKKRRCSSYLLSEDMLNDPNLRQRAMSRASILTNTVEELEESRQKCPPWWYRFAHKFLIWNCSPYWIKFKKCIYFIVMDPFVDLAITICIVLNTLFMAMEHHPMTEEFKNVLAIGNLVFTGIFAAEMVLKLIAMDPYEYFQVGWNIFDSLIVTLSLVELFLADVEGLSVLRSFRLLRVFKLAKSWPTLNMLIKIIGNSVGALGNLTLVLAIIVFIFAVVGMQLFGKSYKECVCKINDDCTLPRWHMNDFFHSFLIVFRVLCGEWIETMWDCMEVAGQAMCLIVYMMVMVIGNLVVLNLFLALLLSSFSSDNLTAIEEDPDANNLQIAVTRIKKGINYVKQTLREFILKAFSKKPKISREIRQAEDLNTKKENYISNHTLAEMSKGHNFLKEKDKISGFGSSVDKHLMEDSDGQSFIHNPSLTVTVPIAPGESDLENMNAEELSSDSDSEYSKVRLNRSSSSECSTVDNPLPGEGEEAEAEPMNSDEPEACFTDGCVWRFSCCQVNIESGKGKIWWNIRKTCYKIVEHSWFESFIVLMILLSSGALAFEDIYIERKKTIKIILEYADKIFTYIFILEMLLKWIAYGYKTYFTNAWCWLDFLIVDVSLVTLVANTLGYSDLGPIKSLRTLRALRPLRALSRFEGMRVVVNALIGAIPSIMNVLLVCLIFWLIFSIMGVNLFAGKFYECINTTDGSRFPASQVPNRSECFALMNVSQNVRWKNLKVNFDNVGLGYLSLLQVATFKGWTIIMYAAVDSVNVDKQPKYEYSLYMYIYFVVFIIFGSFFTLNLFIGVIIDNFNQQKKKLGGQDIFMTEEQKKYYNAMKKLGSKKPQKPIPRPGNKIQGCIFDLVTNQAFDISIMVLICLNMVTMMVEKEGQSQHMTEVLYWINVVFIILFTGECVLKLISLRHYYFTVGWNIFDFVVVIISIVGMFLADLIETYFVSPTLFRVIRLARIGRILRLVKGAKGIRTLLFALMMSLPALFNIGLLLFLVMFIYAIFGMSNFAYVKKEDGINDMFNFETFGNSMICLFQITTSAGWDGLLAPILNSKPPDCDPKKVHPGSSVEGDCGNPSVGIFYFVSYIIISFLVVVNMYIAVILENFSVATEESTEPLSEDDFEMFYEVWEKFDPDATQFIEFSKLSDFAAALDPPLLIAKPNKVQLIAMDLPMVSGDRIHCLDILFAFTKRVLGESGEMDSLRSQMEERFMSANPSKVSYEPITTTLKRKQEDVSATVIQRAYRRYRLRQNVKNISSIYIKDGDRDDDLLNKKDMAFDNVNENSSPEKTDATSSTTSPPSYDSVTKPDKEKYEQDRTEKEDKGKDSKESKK
Sequence of TRPM8 (Q7Z2W7 whole entry, species assumed): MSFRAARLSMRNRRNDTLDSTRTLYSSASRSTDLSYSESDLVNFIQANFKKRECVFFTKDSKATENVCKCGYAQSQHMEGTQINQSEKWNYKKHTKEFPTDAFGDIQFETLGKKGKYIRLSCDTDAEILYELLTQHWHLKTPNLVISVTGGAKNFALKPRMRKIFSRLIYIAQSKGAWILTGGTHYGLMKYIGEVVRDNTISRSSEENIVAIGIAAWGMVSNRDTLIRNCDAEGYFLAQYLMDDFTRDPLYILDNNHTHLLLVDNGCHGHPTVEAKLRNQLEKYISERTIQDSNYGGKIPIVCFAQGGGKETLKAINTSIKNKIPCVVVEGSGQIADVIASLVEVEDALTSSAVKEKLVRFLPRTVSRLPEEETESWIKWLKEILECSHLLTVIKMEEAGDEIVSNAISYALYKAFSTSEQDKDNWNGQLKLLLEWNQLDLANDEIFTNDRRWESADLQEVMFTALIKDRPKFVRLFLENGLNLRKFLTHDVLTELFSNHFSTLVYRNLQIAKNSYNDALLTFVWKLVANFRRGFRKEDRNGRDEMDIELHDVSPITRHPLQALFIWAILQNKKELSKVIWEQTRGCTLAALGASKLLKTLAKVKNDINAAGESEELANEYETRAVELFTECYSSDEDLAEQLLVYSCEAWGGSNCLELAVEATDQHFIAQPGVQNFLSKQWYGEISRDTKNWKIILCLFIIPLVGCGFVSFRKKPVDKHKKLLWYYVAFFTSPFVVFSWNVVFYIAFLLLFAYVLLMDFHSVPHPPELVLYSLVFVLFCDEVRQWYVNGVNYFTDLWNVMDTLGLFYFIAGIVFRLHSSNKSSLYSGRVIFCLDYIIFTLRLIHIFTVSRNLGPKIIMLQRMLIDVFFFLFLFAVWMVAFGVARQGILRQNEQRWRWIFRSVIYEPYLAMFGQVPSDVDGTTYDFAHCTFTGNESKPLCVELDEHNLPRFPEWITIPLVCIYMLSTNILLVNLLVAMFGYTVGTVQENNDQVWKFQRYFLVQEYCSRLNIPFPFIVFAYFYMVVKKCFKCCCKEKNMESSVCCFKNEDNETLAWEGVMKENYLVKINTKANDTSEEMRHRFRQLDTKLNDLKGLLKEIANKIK

`C[C@H](C(=O)[O-])c1ccc(Nc2nc(C(F)(F)F)cs2)cc1.[Na+]` [DF2755A, sodium (2S)-2-(4-{[4-(trifluoromethyl)-1,3-thiazol-2-yl]amino}phenyl)propanoate]: at Nav1.7, the “activity in agonism and antagonism mode” value was “no activity”. For the same compound, the “activity in agonism and antagonism mode” value at TRPA1 is “no activity”. In addition, the “activity in agonism and antagonism mode” value on TRPM8 is reported as “no activity”. For the same compound, at TRPV1 [1], the “activity in agonism and antagonism mode” value is “no activity”. Also, the “activity in agonism and antagonism mode” value on TRPV4 is given as “no activity”. In series [2] (0 to 48 h post-dose), the “overall mean recovery of radioactivity” value is listed as 97.67 % of dose. Further, in [2] (0–168 h), the “Mean recovery of radioactivity, feces” value came out at 77.10 % dose; the “Mean recovery of radioactivity, total” value was 102.06 % dose; the “Mean recovery of radioactivity, urine” value was 24.13 % dose. In [3] (setting [6]), the “dose at which the antinociceptive effects reached a plateau” value was determined as 7 mg/kg and the “dose from which the antinociceptive effect was statistically significant” value is 3 mg/kg. In series [3] (setting [7]), the “decrease of mechanical stimulus threshold versus basal values, hind paws” value is listed as 17% and the “decrease of mechanical stimulus threshold versus basal values, low abdomen” value is listed as “about 30%”. In addition, in series [3] (therapeutic 7 mg kg^−1 twice daily for 7 days), the “duration of anti-hyperalgesic effect after treatment discontinuation” value was “up to 7 days”. Besides, in series [3] (setting [8]), the “decrease of the threshold to mechanical stimulus, hind paw plantar surfaces” value is reported as 40% and the “reduction of the threshold to mechanical stimulus, low abdomen” value is given as 53%. Besides, in series [3] (setting [9]), the “decrease of mechanical stimulus threshold, low abdomen” value was determined as 55% and the “decrease of the threshold to mechanical stimulus, hind paw plantar surfaces” value is 33%. The “reduction of the threshold to mechanical stimuli, low abdomen” value in [3] (therapeutic: 7 mg kg^−1 twice daily for 7 days p.o. from 24 h after last CYP, 2 h after last treatment (Figure 4A)) came to 24%. In series [3] (therapeutic: 7 mg kg^−1 twice daily for 7 days p.o. from 24 h after last CYP, 2 h after last treatment (Figure 4B)), the “decrease of the threshold to mechanical stimuli, hind paw plantar surfaces” value was determined as 4%. Moreover, the “TRPV1 mRNA expression in CYP-exposed cells” value in the series with TRPV1 [4] is on record as “restored TRPV1 mRNA expression to control values”. Further, in the series with TRPV1 [5], the “TRPV1 protein level in CYP-exposed cells” value is recorded as “restored to control expression”. Further, the IC50 in the series with CXCR2 was 2.1 nM.
